Results published in patent publication US8063034B2, “Oxadiazole derivatives and thiadiazole derivatives having neovascularization inhibitory activity” (Santen Pharmaceutical Co., Ltd., priority 2007, dated 2011).
Structures can show the parent of a compound that is named as a salt.

Biological target: T1, tyrosine kinase (KDR) (Homo sapiens, UniProt P35968)
T1 construct: purchased CARNABIO SCIENCE Co. Ltd. JAPAN
Experiment: Evaluation test of inhibitory effect of tyrosine kinase (KDR) activity, ELISA method (CARNABIO SCIENCE kit)
Type: biochemical
Details: 4 mg/L test compound, 1 μM ATP, substrate 250 nM, 1 hour at room temperature, absorbance 450 nm; read-out: tyrosine kinase inhibition rates (% inhibition)
Experimental: In order to find usefulness of the present compounds, a test of inhibitory effect of tyrosine kinase (KDR) activity was conducted on the present compounds using an evaluation system for kinase (KDR) inhibitory activity by way of the ELISA method which is the method for evaluating neovascularization inhibition effect of drugs, and the neovascularization inhibition effects were evaluated.
Evaluation Test of Inhibitory Effect of Tyrosine Kinase (KDR) Activity
As one of the widely-used methods of evaluating inhibitory effect of tyrosine kinase (KDR) activity by drugs, the ELISA method has been reported. The inhibitory effect of tyrosine kinase (KDR) activity of each of the present compounds was evaluated using the commercially available kit (purchased from CARNABIO SCIENCE Co. Ltd. JAPAN) for evaluating inhibitory effect of tyrosine kinase (KDR) activity.
(Preparation of Test Compound Solution)
Each test compound (2 mg) were dissolved in dimethyl sulfoxide (hereinafter abbreviated as DMSO), and the 2 mg/ml stock solution were prepared. Each obtained solution was diluted with 8 μL of DMSO. Each solution (0.4 mg/ml compound) was diluted 25 times with assay buffer to give the test compound solution. For the vehicle, 4% DMSO-Assay Buffer solution was prepared.
(Preparation of ATP/Substrate Solution)
Thaw commercially available ATP/Substrate (purchased from CARNABIO SCIENCE Co. Ltd. JAPAN), then 250 μL of it was added to 1 mL of assay buffer to give ATP/substrate solution. ATP/substrate solution was kept on ice before use.
(Preparation of Enzyme Solution)
7 μL of commercially available tyrosine kinase (purchased from CARNABIO SCIENCE Co. Ltd. JAPAN) was added to 2.793 mL of assay buffer to give enzyme solution. Enzyme solution was kept on ice before use.
(Preparation of Blocking Buffer)
BSA (Sigma, A-7030) was dissolved with wash buffer (50 mM Tris-HCl (pH7.5), 150 mM NaCl, 0.2% Tween-20) to give x100 BSA solution, and the solution was kept at −80° C. Thaw 400 μL of x100 BSA solution before use, it was added to 40 mL of wash buffer to give blocking buffer.
(Preparation of Detection Mixture)
40 μL of commercially available HRP-conjugated antibody (purchased from CARNABIO SCIENCE Co. Ltd. JAPAN) was added to 12 mL of blocking buffer to give detection mixture.
(Method of Test and Method of Measurement)
1) Add 10 μL of each test compound solution, 10 μL of ATP/substrate solution and 20 μL of enzyme solution to each well of ELISA plate (streptavidin-coated 96-well plate, PerkinElmer, 4009-0010). Incubate for 1 hour at room temperature (4 mg/L test compound solution, 15 mM Tris-HCl (pH7.5), 0.01% Tween 20, 2 mM DTT, concentration of substrate: 250 nM, 1 μM ATP, 5 mM Mg). For the vehicle, the above mentioned 4% DMSO-assay buffer solution was added instead of test compound solution.
2) Aspirate each well and wash with wash buffer, repeating the process three times for four washes.
3) Add 200 μL of blocking buffer to each well and cover the plate and incubate for 30 minutes.
4) Aspirate each well, add 100 μL of detection mixture to each well and incubate the plate for 30 minutes.
5) Aspirate each well and wash with wash buffer 4 times.
6) Add 100 μL of color reagent to each well. Incubate for 5 minutes and then add 0.1 M H2SO4 to each well.
7) Measure the absorbance of each well, using a plate reader set to […].
(Calculation of Kinase Inhibition Rate)
Rate of the reaction positive control well with kinase was considered 0% inhibition, rate of the reaction negative control well with assay buffer instead of kinase was considered 100% inhibition, and so the inhibition rates of test compound well were calculated based on the absorbance of them.
A: Absorbance of the reaction positive control well
B: Absorbance of the reaction negative control well
C: Absorbance of the test compound well
tyrosine kinase inhibition rates (%)=100 [1-(C-A)/(B-A)]

T1 sequence (P35968 790-1356 limits assumed): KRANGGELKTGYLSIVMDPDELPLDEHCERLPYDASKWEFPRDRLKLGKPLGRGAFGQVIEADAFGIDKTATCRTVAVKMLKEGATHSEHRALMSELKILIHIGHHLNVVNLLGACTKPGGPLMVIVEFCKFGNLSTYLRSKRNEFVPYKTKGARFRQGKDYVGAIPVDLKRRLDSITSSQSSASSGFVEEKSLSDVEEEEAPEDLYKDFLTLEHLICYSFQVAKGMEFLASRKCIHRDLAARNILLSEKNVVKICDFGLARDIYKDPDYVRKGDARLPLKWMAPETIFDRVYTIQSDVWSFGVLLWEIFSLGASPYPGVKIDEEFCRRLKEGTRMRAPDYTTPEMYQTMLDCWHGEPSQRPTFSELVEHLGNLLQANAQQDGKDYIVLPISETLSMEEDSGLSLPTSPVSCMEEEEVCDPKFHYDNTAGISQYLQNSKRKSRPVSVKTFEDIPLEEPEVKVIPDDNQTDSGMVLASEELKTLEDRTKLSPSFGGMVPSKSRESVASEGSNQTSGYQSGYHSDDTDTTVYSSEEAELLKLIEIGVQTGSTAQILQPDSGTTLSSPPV

c1ccc(Nc2nnc(-c3ccccc3SCc3ccncc3)o2)cc1 [Compound 1-32, N-Phenyl-5-(2-(pyridin-4-yl)methylthiophenyl)-1,3,4-oxadiazol-2-amine]
inhibition at 4 µg/mL: 55%

CC(=O)Nc1cc(COc2ccccc2-c2nnc(Nc3ccccc3)o2)ccn1 [Compound 1-6, 5-(2-(2-Acetamidopyridin-4-yl)methoxyphenyl)-N-phenyl-1,3,4-oxadiazol-2-amine]
inhibition at 4 µg/mL: 65%

CC(C)(C)OC(=O)Nc1cc(CSc2ncccc2-c2nnc(Nc3ccccc3)o2)ccn1 [Compound 1-7, 5-(2-(2-t-Butoxycarbonylaminopyridin-4-yl)methylthiopyridin-3-yl)-N-phenyl-1,3,4-oxadiazol-2-amine]
inhibition at 4 µg/mL: 60%

Nc1cc(CSc2ncccc2-c2nnc(Nc3cccc(C(F)(F)F)c3)o2)ccn1 [Compound 1-92, 5-(2-(2-Aminopyridin-4-yl)methylthiopyridin-3-yl)-N-(3-trifluoromethylphenyl)-1,3,4-oxadiazol-2-amine hydrochloride]
inhibition at 4 µg/mL: 98%

CNC(=O)c1cc(CSc2ncccc2-c2nnc(Nc3ccc(Cl)cc3)o2)ccn1 [Compound 1-20, N-(4-Chlorophenyl)-5-(2-(2-methylaminocarbonylpyridin-4-yl)methylthiopyridin-3-yl)-1,3,4-oxadiazol-2-amine]
inhibition at 4 µg/mL: 86%

FC(F)(F)c1ccc(Nc2nnc(-c3ccccc3SCc3ccncc3)s2)cc1 [Compound 1-38, 5-(2-(Pyridin-4-yl)methylthiophenyl)-N-(4-trifluoromethylphenyl)-1,3,4-thiadiazole-2-amine]
inhibition at 4 µg/mL: 53%

c1ccc(Nc2nnc(-c3cccnc3SCc3ccncc3)o2)cc1 [Compound 1-10, N-Phenyl-5-(2-(pyridin-4-yl)methylthiopyridin-3-yl)-1,3,4-oxadiazol-2-amine]
inhibition at 4 µg/mL: 76%

CC(=O)Nc1cc(CSc2ccccc2-c2nnc(Nc3cccc(C(F)(F)F)c3)o2)ccn1 [Compound 1-46, 5-(2-(2-Acetamidopyridin-4-yl)methylthiophenyl)-N-(3-trifluoromethylphenyl)-1,3,4-oxadiazol-2-amine]
inhibition at 4 µg/mL: 98%

Clc1ccc(Nc2nnc(-c3cccnc3SCc3ccnc4ccccc34)o2)cc1 [Compound 1-14, N-(4-Chlorophenyl)-5-(2-(quinolin-4-yl)methylthiopyridin-3-yl)-1,3,4-oxadiazol-2-amine]
inhibition at 4 µg/mL: 90%

c1ccc(Nc2nnc(-c3ccccc3OCc3ccncc3)o2)cc1 [Compound 1-1, N-Phenyl-5-(2-(pyridin-4-yl)methoxyphenyl)-1,3,4-oxadiazol-2-amine]
inhibition at 4 µg/mL: 55%

Clc1ccc(Nc2nnc(-c3ccccc3SCc3ccncc3)s2)cc1 [Compound 1-36, N-(4-Chlorophenyl)-5-(2-(pyridin-4-yl)methylthiophenyl)-1,3,4-thiadiazol-2-amine]
inhibition at 4 µg/mL: 68%

c1ccc(Nc2nnc(-c3cccnc3SCc3ccnc4ccccc34)o2)cc1 [Compound 1-13, N-Phenyl-5-(2-(quinolin-4-yl)methylthiopyridin-3-yl)-1,3,4-oxadiazol-2-amine]
inhibition at 4 µg/mL: 72%

FC(F)(F)c1cccc(Nc2nnc(-c3ccccc3OCc3ccncc3)o2)c1 [Compound 1-3, 5-(2-(Pyridin-4-yl)methoxyphenyl)-N-(3-trifluoromethylphenyl)-1,3,4-oxadiazol-2-amine]
inhibition at 4 µg/mL: 80%

CC(C)(C)c1ccc(Nc2nnc(-c3ccccc3SCc3ccncc3)s2)cc1 [Compound 1-39, N-(4-t-Butylphenyl)-5-(2-(pyridin-4-yl)methylthiophenyl)-1,3,4-thiadiazol-2-amine]
inhibition at 4 µg/mL: 43%

Nc1cc(CSc2ncccc2-c2nnc(Nc3ccc(Cl)cc3)o2)ccn1 [Compound 1-91, 5-(2-(2-Aminopyridin-4-yl)methylthiopyridin-3-yl)-N-(4-chlorophenyl)-1,3,4-oxadiazol-2-amine hydrochloride]
inhibition at 4 µg/mL: 86%

FC(F)(F)c1cccc(Nc2nnc(-c3ccccc3SCc3ccncc3)o2)c1 [Compound 1-33, 5-(2-(Pyridin-4-yl)methylthiophenyl)-N-(3-trifluoromethylphenyl)-1,3,4-oxadiazol-2-amine]
inhibition at 4 µg/mL: 95%

CC(=O)Nc1cc(CSc2ncccc2-c2nnc(Nc3cccc(C(F)(F)F)c3)o2)ccn1 [Compound 1-18, 5-(2-(2-Acetamidopyridin-4-yl)methylthiopyridin-3-yl)-N-(3-trifluoromethylphenyl)-1,3,4-oxadiazol-2-amine]
inhibition at 4 µg/mL: 99%

CC(=O)Nc1cc(CSc2ncccc2-c2nnc(Nc3ccc(Cl)cc3)o2)ccn1 [Compound 1-17, 5-(2-(2-Acetamidopyridin-4-yl)methylthiopyridin-3-yl)-N-(4-chlorophenyl)-1,3,4-oxadiazol-2-amine]
inhibition at 4 µg/mL: 94%

Clc1ccc(Nc2nnc(-c3ccccc3SCc3ccncc3)o2)cc1 [Compound 1-41, N-(4-Chlorophenyl)-5-(2-(pyridin-4-yl)methylthiophenyl)-1,3,4-oxadiazol-2-amine]
inhibition at 4 µg/mL: 82%

c1ccc(Nc2nnc(-c3ccccc3SCc3ccnc4ccccc34)o2)cc1 [Compound 1-40, N-Phenyl-5-(2-(quinolin-4-yl)methylthiophenyl)-1,3,4-oxadiazol-2-amine]
inhibition at 4 µg/mL: 88%

CC(=O)Nc1cc(CSc2ncccc2-c2nnc(Nc3ccccc3)o2)ccn1 [Compound 1-16, 5-(2-(2-Acetamidopyridin-4-yl)methylthiopyridin-3-yl)-N-phenyl-1,3,4-oxadiazol-2-amine]
inhibition at 4 µg/mL: 95%

CC(C)(C)c1ccc(Nc2nnc(-c3ccccc3SCc3ccncc3)o2)cc1 [Compound 1-34, N-(4-t-Butylphenyl)-5-(2-(pyridin-4-yl)methylthiophenyl)-1,3,4-oxadiazol-2-amine]
inhibition at 4 µg/mL: 86%

CNC(=O)c1cc(CSc2ncccc2-c2nnc(Nc3cccc(C(F)(F)F)c3)o2)ccn1 [Compound 1-21, 5-(2-(2-Methylaminocarbonylpyridin-4-yl)methylthiopyridin-3-yl)-N-(3-trifluoromethylphenyl)-1,3,4-oxadiazol-2-amine]
inhibition at 4 µg/mL: 93%

Clc1cccc(Nc2nnc(-c3ccccc3SCc3ccncc3)s2)c1 [Compound 1-37, N-(3-Chlorophenyl)-5-(2-(pyridin-4-yl)methylthiophenyl)-1,3,4-thiadiazol-2-amine]
inhibition at 4 µg/mL: 84%

Nc1nccc(CSc2ccccc2-c2nnc(Nc3ccccc3)o2)n1 [Compound 1-47, 5-(2-(2-Aminopyrimidin-4-yl)methylthiophenyl)-N-phenyl-1,3,4-oxadiazol-2-amine]
inhibition at 4 µg/mL: 75%

c1ccc(Nc2nnc(-c3ccccc3SCc3ccncc3)s2)cc1 [Compound 1-35, N-Phenyl-5-(2-(pyridin-4-yl)methylthiophenyl)-1,3,4-thiadiazol-2-amine]
inhibition at 4 µg/mL: 58%

CC(=O)Nc1cc(CSc2ccccc2-c2nnc(Nc3ccc(Cl)cc3)o2)ccn1 [Compound 1-45]
inhibition at 4 µg/mL: 91%

c1ccc(Nc2nnc(-c3ccccc3OCc3ccnc4ccccc34)o2)cc1 [Compound 1-4, N-Phenyl-5-(2-(quinolin-4-yl)methoxyphenyl)-1,3,4-oxadiazol-2-amine]
inhibition at 4 µg/mL: 75%
